Measurements taken from patent US7968577B2 (Bristol-Myers Squibb Company, priority 2006, dated 2011).

Assays:
[1] = molecular target: T1, human full-length glucocorticoid receptor (Homo sapiens, UniProt P04150); test: Glucocorticoid Receptor Binding Assay (II), fluorescence polarization competitor kit (Fluormone GS1); conditions: GR Binding Assay (II)
T1 construct: recombinantly expressed human full-length glucocorticoid receptor; purchased PanVera Co., Madison, Wis; P2816
T1 sequence (P04150 1-777): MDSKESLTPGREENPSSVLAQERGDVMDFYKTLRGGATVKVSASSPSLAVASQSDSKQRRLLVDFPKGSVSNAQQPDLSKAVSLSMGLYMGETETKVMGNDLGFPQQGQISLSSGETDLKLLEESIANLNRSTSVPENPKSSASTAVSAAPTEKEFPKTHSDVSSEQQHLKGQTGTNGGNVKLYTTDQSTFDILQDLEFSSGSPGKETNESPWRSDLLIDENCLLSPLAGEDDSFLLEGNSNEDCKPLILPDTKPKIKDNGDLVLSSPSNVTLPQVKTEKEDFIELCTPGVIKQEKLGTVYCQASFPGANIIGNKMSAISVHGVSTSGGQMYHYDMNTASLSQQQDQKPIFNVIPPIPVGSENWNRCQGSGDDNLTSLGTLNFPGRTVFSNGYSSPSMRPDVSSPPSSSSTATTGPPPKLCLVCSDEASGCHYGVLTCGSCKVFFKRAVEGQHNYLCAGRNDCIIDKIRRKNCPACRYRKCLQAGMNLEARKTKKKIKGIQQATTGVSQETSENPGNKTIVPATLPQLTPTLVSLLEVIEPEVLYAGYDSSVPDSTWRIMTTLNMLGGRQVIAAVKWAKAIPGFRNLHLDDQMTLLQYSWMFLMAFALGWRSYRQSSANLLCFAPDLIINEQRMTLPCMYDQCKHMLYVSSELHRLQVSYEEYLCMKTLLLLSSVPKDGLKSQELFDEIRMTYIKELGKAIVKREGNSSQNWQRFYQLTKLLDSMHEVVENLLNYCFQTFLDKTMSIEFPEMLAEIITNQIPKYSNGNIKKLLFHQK
Experimental: Glucocorticoid Receptor Binding Assay (II)^b
In order to measure the binding of compounds on the glucocorticoid receptor a commercially available kit was used (Glucocorticoid receptor competitor assay kit, PanVera Co., Madison, Wis., P2816). Briefly, a cell lysate containing recombinantly expressed human full-length glucocorticoid receptor was mixed with a fluorescently labeled glucocorticoid (1 nM Fluormone GS1) in the presence or absence of test compound. After one hour at room temperature, the fluorescence polarization (FP) of the samples were measured.

[2] = tested on: AP-1 induced transcriptional activity; test: Cellular Transrepressional Assay: AP-1 luciferase reporter in PMA-activated A549 cells; assay type: cell-based; conditions: Homo sapiens; for Emax: A549, 7 h, maximum inhibition, Cellular Transrepression Assay, read-out: AP-1 Max % inh (Cellular Transrepression Assay)
Summary of the method: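 A549 cells stably carrying a 7× AP-1–luciferase reporter were stimulated with 10 ng/ml PMA with or without compound (0.1 nM–40 μM) for 7 h. Luminescence read 10 min after luciferase reagent; EC50 fitted from % decrease versus PMA-only signal.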

Row | Compound | Ki [1] | other results
1 | CC(C)(C(=O)Nc1nncs1)C(c1ccccc1)c1ccc(Br)cc1 (stereo not shown) [Example 318, 3-(4-bromophenyl)-2,2-dimethyl-3-phenyl-N-1,3,4-thiadiazol-2-ylpropanamide] | 12.8 nM | –
2 | Cc1cnc(NC(=O)C(C)(C)[C@@H](c2ccccc2)c2ccc(O)cc2)s1 [Example 331, (3S)-3-(4-hydroxyphenyl)-2,2-dimethyl-N-(5-methyl-1,3-thiazol-2-yl)-3-phenylpropanamide] | 18.8 nM | –
3 | CC(C)(C(=O)Nc1nccs1)C(c1ccccc1)c1ccc(Br)cc1 (stereo not shown) [Example 317, 3-(4-bromophenyl)-2,2-dimethyl-3-phenyl-N-1,3-thiazol-2-ylpropanamide] | 23.2 nM | –
4 | CC(C)(C(=O)Nc1nccs1)C(c1ccccc1)c1cccc(Br)c1 (stereo not shown) [Example 311, 3-(3-bromophenyl)-2,2-dimethyl-3-phenyl-N-1,3-thiazol-2-ylpropanamide] | 17.5 nM | –
5 | CC(O)c1cccc(C(c2ccccc2)C(C)(C)C(=O)Nc2nccs2)c1 (stereo not shown) [Example 373, 3-(3-(1-hydroxyethyl)phenyl)-2,2-dimethyl-3-phenyl-N-1,3-thiazol-2-ylpropanamide] | 320 nM | –
6 | COc1ccc(C(c2ccccc2)C(C)(C)C(=O)Nc2nccs2)cc1F (stereo not shown) [Example 282, 3-(3-fluoro-4-(methyloxy)phenyl)-2,2-dimethyl-3-phenyl-N-1,3-thiazol-2-ylpropanamide] | 29.5 nM | –
7 | COc1ccc(C(c2ccccc2)C(C)(C)C(=O)Nc2nncs2)c(F)c1 (stereo not shown) [Example 280, 3-(2-fluoro-4-(methyloxy)phenyl)-2,2-dimethyl-3-phenyl-N-1,3,4-thiadiazol-2-ylpropanamide] | 100 nM | –
8 | COc1ccc([C@H](c2ccccc2)C(C)(C)C(=O)NC2CCCC2)cc1 [Example 273, (3S)-N-cyclopentyl-2,2-dimethyl-3-(4-(methyloxy)phenyl)-3-phenylpropanamide] | 987 nM | –
9 | Cc1csc(NC(=O)C(C)(C)[C@@H](c2ccccc2)c2ccc(O)cc2)n1 [Example 329, (3S)-3-(4-hydroxyphenyl)-2,2-dimethyl-N-(4-methyl-1,3-thiazol-2-yl)-3-phenylpropanamide] | 16.8 nM | –
10 | CC(C)(C(=O)Nc1nncs1)C(c1ccccc1)c1ccc(N2CCOCC2)c(F)c1 (stereo not shown) [Example 244, 3-(3-fluoro-4-(4-morpholinyl)phenyl)-2,2-dimethyl-3-phenyl-N-1,3,4-thiadiazol-2-ylpropanamide] | 17.8 nM | –
11 | COc1ccc([C@H](c2ccccc2)C(C)(C)C(=O)Nc2ccncn2)cc1 [Example 278, (3S)-2,2-dimethyl-3-(4-(methyloxy)phenyl)-3-phenyl-N-4-pyrimidinylpropanamide] | 1850 nM | –
12 | CC(C)(C(=O)Nc1nncs1)C(c1ccccc1)c1ccc(N2CCNCC2)cc1 (stereo not shown) [Example 251, 2,2-dimethyl-3-phenyl-3-(4-(1-piperazinyl)phenyl)-N-1,3,4-thiadiazol-2-ylpropanamide] | 636 nM | –
13 | CC(C)(C(=O)Nc1nccs1)C(c1ccccc1)c1ccc(F)cc1 (stereo not shown) [Example 308, 3-(4-fluorophenyl)-2,2-dimethyl-3-phenyl-N-1,3-thiazol-2-ylpropanamide] | 35 nM | –
14 | CC(C)(C(=O)NC1CCC1)[C@@H](c1ccccc1)c1ccc(O)cc1 [Example 333, (3S)-N-cyclobutyl-3-(4-hydroxyphenyl)-2,2-dimethyl-3-phenylpropanamide] | 392 nM | –
15 | COc1ccc([C@H](c2ccccc2)C(C)(C)C(=O)Nc2ccccn2)cc1 [Example 277, (3S)-2,2-dimethyl-3-(4-(methyloxy)phenyl)-3-phenyl-N-2-pyridinylpropanamide] | 2670 nM | –
16 | CC(C)(C(=O)Nc1nc(Cc2ccc(-c3ccncc3)cc2)cs1)C(c1ccccc1)c1ccc(N2CCOCC2)cc1 (stereo not shown) [Example 223, 2,2-dimethyl-3-(4-(4-morpholinyl)phenyl)-3-phenyl-N-(4-((4-(4-pyridinyl)phenyl)methyl)-1,3-thiazol-2-yl)propanamide] | – | Emax [2]: 70.8%; EC50 ([2]; A549, Cellular Transrepression Assay): 88.1 nM
17 | COc1cccc(C(c2ccccc2)C(C)(C)C(=O)Nc2nc3ccccc3s2)c1 (stereo not shown) [Example 101, N-1,3-benzothiazol-2-yl-2,2-dimethyl-3-(3-(methyloxy)phenyl)-3-phenylpropanamide] | – | Emax [2]: 26.9%
18 | CC(C)(C(=O)Nc1nc2ccc(Cl)cc2s1)C(c1ccccc1)c1ccc(O)cc1 (stereo not shown) [Example 220, N-(6-chloro-1,3-benzothiazol-2-yl)-3-(4-hydroxyphenyl)-2,2-dimethyl-3-phenylpropanamide] | – | Emax [2]: 36.2%

More lines, main results first:

Row | Ki [1] | Compound | other results
19 | 13.6 nM | CC(C)(C(=O)Nc1nncs1)C(c1ccccc1)c1ccc(N2CCCC2)cc1 (stereo not shown) [Example 237, 2,2-dimethyl-3-phenyl-3-(4-(1-pyrrolidinyl)phenyl)-N-1,3,4-thiadiazol-2-ylpropanamide] | –
20 | 13.8 nM | COc1ccc(C(c2ccccc2)C(C)(C)C(=O)Nc2nncs2)cc1F (stereo not shown) [Example 285, 3-(3-fluoro-4-(methyloxy)phenyl)-2,2-dimethyl-3-phenyl-N-1,3,4-thiadiazol-2-ylpropanamide] | –
21 | 14.5 nM | CC(C)(C(=O)Nc1nccs1)C(c1ccc(Cl)cc1)c1ccc(N2CCOCC2)cc1 (stereo not shown) [Example 232, 3-(4-chlorophenyl)-2,2-dimethyl-3-(4-(4-morpholinyl)phenyl)-N-1,3-thiazol-2-ylpropanamide] | –
22 | 175 nM | CC(C)(C(=O)Nc1ccccn1)[C@@H](c1ccccc1)c1ccc(O)cc1 [Example 341, (3S)-3-(4-hydroxyphenyl)-2,2-dimethyl-3-phenyl-N-2-pyridinylpropanamide] | –
23 | 31.3 nM | CC(C)(C(=O)Nc1nncs1)C(c1ccccc1)c1ccc(N2CCC(O)CC2)cc1 (stereo not shown) [Example 241, 3-(4-(4-hydroxy-1-piperidinyl)phenyl)-2,2-dimethyl-3-phenyl-N-1,3,4-thiadiazol-2-ylpropanamide] | –
24 | 67.2 nM | COc1ccc(C(c2ccc(OC)cc2)C(C)(C)C(=O)Nc2nccs2)cc1 [Example 69, 2,2-dimethyl-3,3-bis(4-(methyloxy)phenyl)-N-1,3-thiazol-2-ylpropanamide] | –
25 | 1160 nM | COc1ccc([C@@H](c2ccccc2)C(C)(C)C(=O)NC2CCC2)cc1 [Example 272, (3R)-N-cyclobutyl-2,2-dimethyl-3-(4-(methyloxy)phenyl)-3-phenylpropanamide] | –
26 | 2310 nM | CC(C)(C(=O)Nc1nncs1)C(c1ccccc1)c1cccc(N2CCOCC2)c1 (stereo not shown) [Example 245, 2,2-dimethyl-3-(3-(4-morpholinyl)phenyl)-3-phenyl-N-1,3,4-thiadiazol-2-ylpropanamide] | –
27 | 9.2 nM | COc1ccc(C(c2ccccc2)C(C)(C)C(=O)Nc2nccs2)cc1F (stereo not shown) [Example 283, 3-(3-fluoro-4-(methyloxy)phenyl)-2,2-dimethyl-3-phenyl-N-1,3-thiazol-2-ylpropanamide] | –
28 | 60.9 nM | CC(=O)c1cccc(C(c2ccccc2)C(C)(C)C(=O)Nc2nccs2)c1 (stereo not shown) [Example 370, 3-(3-acetylphenyl)-2,2-dimethyl-3-phenyl-N-1,3-thiazol-2-ylpropanamide] | –
29 | 13.2 nM | CC(C)(C(=O)Nc1nncs1)C(c1ccc(Cl)cc1)c1ccc(N2CCOCC2)cc1 (stereo not shown) [Example 233, 3-(4-chlorophenyl)-2,2-dimethyl-3-(4-(4-morpholinyl)phenyl)-N-1,3,4-thiadiazol-2-ylpropanamide] | –
30 | 74.7 nM | COc1ccc(C(c2ccccc2)C(C)(C)C(=O)Nc2nccs2)c(F)c1 (stereo not shown) [Example 279, 3-(2-fluoro-4-(methyloxy)phenyl)-2,2-dimethyl-3-phenyl-N-1,3-thiazol-2-ylpropanamide] | –
